In US11559538B2, “Substituted 1,2-oxaborolan-2-ols as PDE4 inhibitors” (Pfizer Inc., priority 2018, dated 2023):
Where two headings read alike, the source gives them in different places.

Legend:
IL-13 = assay: Cytokine assay: IL-13 release from PHA-L stimulated human PBMCs; assay type: cell-based; settings: read-out: IL13 IC50
Summary of the method: (§1)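 Cytokines IL-4, IL-13 and IFNγ quantified by HTRF after 48 h, 37 °C culture of human PBMCs activated with PHA-L at 3.5 μg/mL final. Test compound, 4-fold dilutions from approximately 10 μM in 0.25% DMSO, was added briefly before stimulation; IC50 derived by four-parameter logistic regression.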

IFNγ = assay: Cytokine assay: IFNγ release from PHA-L stimulated human PBMCs; assay type: cell-based
Summary of the method: as §1

IL-4 = assay: Cytokine assay: IL-4 release from PHA-L stimulated human PBMCs; assay type: cell-based; settings: read-out: IL4 IC50
Summary of the method: as §1

[1] = target: PDE4B (aa 152-484, Uniprot ID Q07343) (Homo sapiens (Human), UniProt Q07343); assay: PDE4 SPA assay (scintillation proximity assay); assay type: biochemical; settings: read-out: PDE4B2 IC50
Chain of PDE4B (aa 152-484, Uniprot ID Q07343) (Q07343 324-656): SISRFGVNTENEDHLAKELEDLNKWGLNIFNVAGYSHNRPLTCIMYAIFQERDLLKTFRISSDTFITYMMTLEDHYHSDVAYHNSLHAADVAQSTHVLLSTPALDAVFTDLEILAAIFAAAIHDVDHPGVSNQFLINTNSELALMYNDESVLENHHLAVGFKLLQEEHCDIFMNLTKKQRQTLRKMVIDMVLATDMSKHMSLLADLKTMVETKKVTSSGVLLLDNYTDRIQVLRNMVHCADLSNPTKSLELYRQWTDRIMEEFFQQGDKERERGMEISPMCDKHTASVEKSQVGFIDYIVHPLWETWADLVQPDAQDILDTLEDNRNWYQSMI
Summary of the method: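 Scintillation proximity read-out after a 30 min room-temperature reaction of ~81.6 pM PDE4B catalytic fragment (aa 152-484) with 1 μM tritiated/unlabeled cAMP, pH 7.5 Tris buffer with MgCl2 and Brij 35. Compound given ~10 min beforehand, 4-fold dilutions, ~2% DMSO; IC50 from four-parameter logistic curve.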

IC50 (IL-13; Homo sapiens, PBMC)	IC50 (IFNγ; Homo sapiens, PBMC)	IC50 (IL-4; Homo sapiens, PBMC)	IC50 [1]	IC50 (IL-13)	IC50 (IL-4)	IC50 (IFNγ)	SMILES
1400 nM	5.13 nM	31.4 nM	4.43 nM				CCOc1cc(-c2nc(OC)cc(C3COB(O)C3)n2)ccc1OC (single isomer, unassigned; enantiomer 2) [Example 186, (−) 4-(2-(3-ethoxy-4-methoxyphenyl)-6-methoxypyrimidin-4-yl)-1,2-oxaborolan-2-ol, enantiomer 2]
	1.46 nM		2.61 nM	1460 nM	7.72 nM		CCOc1cc(-c2cncc(C3COB(O)C3)c2C)ccc1OC (single isomer, unassigned; enantiomer 2) [Example 189, 4-(5-(3-ethoxy-4-methoxyphenyl)-4-methylpyridin-3-yl)-1,2-oxaborolan-2-ol, enantiomer 2]
			1.43 nM	1480 nM	40.3 nM	5.01 nM	COc1ccc(-c2cncc(C3COB(O)C3)c2)cc1OC(C)C (single isomer, unassigned; enantiomer 2) [Example 190, 4-(5-(3-isopropoxy-4-methoxyphenyl)pyridin-3-yl)-1,2-oxaborolan-2-ol, enantiomer 2]
1500 nM	5.43 nM	14.6 nM	2.15 nM				CCOc1c(OC)ccc(-c2cccc(C3COB(O)C3)c2)c1C#N (single isomer, unassigned; enantiomer 2) [Example 192, 3-ethoxy-3′-(2-hydroxy-1,2-oxaborolan-4-yl)-4-methoxy-[1,1′-biphenyl]-2-carbonitrile, enantiomer 2]
			0.22 nM	1800 nM	4.06 nM	1.98 nM	CCCOc1nc(-c2cncc(C3COB(O)C3)c2)c(F)cc1OC (single isomer, unassigned; enantiomer 2) [Example 208, (+) 4-(3-fluoro-5-methoxy-6-propoxy-[2,3′-bipyridin]-5′-yl)-1,2-oxaborolan-2-ol, enantiomer 2]
1840 nM	1.83 nM	27.8 nM	2.95 nM				COc1ccc(-c2cc(C3COB(O)C3)ccn2)cc1OC1CCCC1 (single isomer, unassigned; enantiomer 2) [Example 211, 4-(2-(3-(cyclopentyloxy)-4-methoxyphenyl)pyridin-4-yl)-1,2-oxaborolan-2-ol, enantiomer 2]
			4.92 nM	2000 nM	20.7 nM	13.7 nM	CCOc1cc(-c2cncc(C3COB(O)C3)c2)cc(F)c1OC (single isomer, unassigned; enantiomer 2) [Example 214, 4-(5-(3-ethoxy-5-fluoro-4-methoxyphenyl)pyridin-3-yl)-1,2-oxaborolan-2-ol, enantiomer 2]
			2.21 nM	2430 nM	47.4 nM	9.35 nM	COc1ccc(-c2cncc(C3COB(O)C3)c2)cc1OC (single isomer, unassigned; enantiomer 2) [Example 221, 4-(5-(3,4-dimethoxyphenyl)pyridin-3-yl)-1,2-oxaborolan-2-ol, enantiomer 2]
2380 nM	4.36 nM	21.2 nM	3.79 nM				CCCOc1cc(-c2nc(OC)cc(C3COB(O)C3)n2)ccc1OC (single isomer, unassigned; enantiomer 2) [Example 225, (−) 4-(6-methoxy-2-(4-methoxy-3-propoxphenyl)pyrimidin-4-yl)-1,2-oxaborolan-2-ol, enantiomer 2]
			6.32 nM	2570 nM	7.78 nM	14.2 nM	COc1ccc(-c2cncc(C3COB(O)C3)c2)cc1OCCO (single isomer, unassigned; enantiomer 2) [Example 228, (+) 4-(5-(3-(2-hydroxyethoxy)-4-methoxyphenyl)pyridin-3-yl)-1,2-oxaborolan-2-ol, enantiomer 2]
1350 nM	2.73 nM	210 nM	0.67 nM				CCOc1cc(-c2cncc([C@H]3COB(O)C3)c2)ccc1OC [Example 2, (S)-4-(5-(3-ethoxy-4-methoxyphenyl)pyridin-3-yl)-1,2-oxaborolan-2-ol]
165 nM	0.7 nM	3.54 nM	1.14 nM				CCOc1cc(-c2cncc([C@@H]3COB(O)C3)c2)ccc1OC [Example 3, (R)-4-(5-(3-ethoxy-4-methoxyphenyl)pyridin-3-yl)-1,2-oxaborolan-2-ol]
2390 nM	4.04 nM	36.3 nM	0.93 nM				CCCOc1cc(-c2cncc([C@H]3COB(O)C3)c2)ccc1OC [Example 5, (S)-4-(5-(4-methoxy-3-propoxyphenyl)pyridin-3-yl)-1,2-oxaborolan-2-ol]
2320 nM	9.17 nM	67.8 nM	2.4 nM				CCCOc1cc(-c2cncc(C3=CB(O)OC3)c2)ccc1OC [Example 25, 4-(5-(4-methoxy-3-propoxyphenyl)pyridin-3-yl)-1,2-oxaborol-2(5H)-ol]
10000 nM	3300 nM	1670 nM	399 nM				CCCOc1cc(-c2cccc(C3CCOB(O)C3)n2)ccc1OC (centres unmarked) [Example 26, 4-(6-(4-methoxy-3-propoxyphenyl)pyridin-2-yl)-1,2-oxaborinan-2-ol]
10000 nM	209 nM	3790 nM	73.4 nM				CCCOc1cc(-c2cccc(C3COB(O)C3C)n2)ccc1OC (centres unmarked) [Example 27, 4-(6-(4-methoxy-3-propoxyphenyl)pyridin-2-yl)-3-methyl-1,2-oxaborolan-2-ol]
8010 nM	201 nM	1040 nM	10.8 nM				CCCOc1cc(-c2cccc(C3=C(C)B(O)OC3)n2)ccc1OC [Example 28, 4-(6-(4-methoxy-3-propoxyphenyl)pyridin-2-yl)-3-methyl-1,2-oxaborol-2(5H)-ol]
3470 nM	4.82 nM	9.51 nM	10.5 nM				CCCOc1cc(-c2cccc(C3(C)COB(O)C3)n2)ccc1OC (centres unmarked) [Example 29, 4-(6-(4-methoxy-3-propoxyphenyl)pyridin-2-yl)-4-methyl-1,2-oxaborolan-2-ol]
10000 nM	11.6 nM	70.7 nM	15.5 nM				CCCOc1cc(-c2cc(C3CB(O)OC3C)cnn2)ccc1OC (centres unmarked) [Example 30, 4-(6-(4-methoxy-3-propoxyphenyl)pyridazin-4-yl)-5-methyl-1,2-oxaborolan-2-ol]
5730 nM	2.96 nM	3.92 nM	4.2 nM				CCCOc1cc(-c2cncc(C3(CO)COB(O)C3)c2)ccc1OC (centres unmarked) [Example 31, 4-(hydroxymethyl)-4-(5-(4-methoxy-3-propoxyphenyl)pyridin-3-yl)-1,2-oxaborolan-2-ol]
2250 nM	8.47 nM	64 nM	13 nM				COc1ccc(-c2cncc(C3COB(O)C3)c2)cc1OC (centres unmarked) [Example 32, 4-(5-(3,4-dimethoxyphenyl)pyridin-3-yl)-1,2-oxaborolan-2-ol]
181 nM	1.44 nM	39.8 nM	1.25 nM				CCOc1cc(-c2cncc(C3COB(O)C3)c2)ccc1OC (centres unmarked) [Example 33, 4-(5-(3-ethoxy-4-methoxyphenyl)pyridin-3-yl)-1,2-oxaborolan-2-ol]
309 nM	1.39 nM	14.3 nM	0.52 nM				CCCOc1cc(-c2cncc(C3COB(O)C3)c2)ccc1OC (centres unmarked) [Example 34, 4-(5-(4-methoxy-3-propoxyphenyl)pyridin-3-yl)-1,2-oxaborolan-2-ol]
230 nM	1.55 nM	6.98 nM	1.17 nM				COc1ccc(-c2cncc(C3COB(O)C3)c2)cc1OC(C)C (centres unmarked) [Example 35, 4-(5-(3-isopropoxy-4-methoxyphenyl)pyridin-3-yl)-1,2-oxaborolan-2-ol]
476 nM	1.27 nM	5.25 nM	0.98 nM				COc1ccc(-c2cncc(C3COB(O)C3)c2)cc1OC1CC1 (centres unmarked) [Example 36, 4-(5-(3-cyclopropoxy-4-methoxyphenyl)pyridin-3-yl)-1,2-oxaborolan-2-ol]
182 nM	1.82 nM	13.8 nM	1.63 nM				COc1ccc(-c2cncc(C3COB(O)C3)c2)cc1OCCF (centres unmarked) [Example 39, 4-(5-(3-(2-fluoroethoxy)-4-methoxyphenyl)pyridin-3-yl)-1,2-oxaborolan-2-ol]
175 nM	1.28 nM	29.2 nM	0.37 nM				COc1ccc(-c2cccc(C3COB(O)C3)c2)cc1OCCCF (centres unmarked) [Example 40, 4-(3′-(3-fluoropropoxy)-4′-methoxy-[1,1′-biphenyl]-3-yl)-1,2-oxaborolan-2-ol]
397 nM	1.87 nM	6.2 nM	6.85 nM				CCOc1c(OC)ccc(-c2cncc(C3COB(O)C3)c2)c1C(F)F (centres unmarked) [Example 41, 4-(5-(2-(difluoromethyl)-3-ethoxy-4-methoxyphenyl)pyridin-3-yl)-1,2-oxaborolan-2-ol]
205 nM	1.55 nM	90.4 nM	0.35 nM				CCCOc1c(OC)ccc(-c2cccc(C3COB(O)C3)c2)c1C#N (centres unmarked) [Example 42, 3′-(2-hydroxy-1,2-oxaborolan-4-yl)-4-methoxy-3-propoxy-[1,1′-biphenyl]-2-carbonitrile]
